Data taken from EP4778922A1, “BICYCLIC COMPOUND, AND PREPARATION METHOD THEREFOR AND PHARMACEUTICAL USE THEREOF” (Shanghai Jeyou Pharmaceutical Co., Ltd., priority 2023, dated 2025).
Read-outs that look alike come from different tables or passages of the source.

Legend:
LNCaP cells = experiment: Cell proliferation inhibition assay in LNCaP cells (0.2 nM DHT, CellTiter-Glo, 7 days); format: cell-based, human; conditions: Homo sapiens, LNCaP, 168 h
Summary of the method: (§1)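 LNCaP and 22RV1 human prostate cancer cells, 3000 per well, exposed to graded compound for 7 days at 37°C, 5% CO2; LNCaP got 0.2 nM DHT 1 h after compound. Viability by CellTiter-Glo luminescence; IC50 from four-parameter variable-slope fit.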

[1] = Mouse pharmacokinetic test; format: in vivo, ICR mice; conditions: plasma; for Tmax: read-out: Tmax; for bioavailability: PO-30mpk vs IV-0.5mpk
Summary of the method: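 Male naive ICR mice (25–30 g, n=3 per route) received a single intravenous or oral dose, with feeding resumed 4 h post-dose. Blood was centrifuged at 4°C, and plasma was stored at -80°C until analysis.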

CYP1A2 = biological target: T1, CYP1A2 (Homo sapiens, UniProt P05177); experiment: CYP inhibition assay in human liver microsomes; format: in vitro ADME
T1 construct: co-incubated with human liver microsomes; from tissue; host or cells: human liver microsomes
T1 sequence (P05177 1-516): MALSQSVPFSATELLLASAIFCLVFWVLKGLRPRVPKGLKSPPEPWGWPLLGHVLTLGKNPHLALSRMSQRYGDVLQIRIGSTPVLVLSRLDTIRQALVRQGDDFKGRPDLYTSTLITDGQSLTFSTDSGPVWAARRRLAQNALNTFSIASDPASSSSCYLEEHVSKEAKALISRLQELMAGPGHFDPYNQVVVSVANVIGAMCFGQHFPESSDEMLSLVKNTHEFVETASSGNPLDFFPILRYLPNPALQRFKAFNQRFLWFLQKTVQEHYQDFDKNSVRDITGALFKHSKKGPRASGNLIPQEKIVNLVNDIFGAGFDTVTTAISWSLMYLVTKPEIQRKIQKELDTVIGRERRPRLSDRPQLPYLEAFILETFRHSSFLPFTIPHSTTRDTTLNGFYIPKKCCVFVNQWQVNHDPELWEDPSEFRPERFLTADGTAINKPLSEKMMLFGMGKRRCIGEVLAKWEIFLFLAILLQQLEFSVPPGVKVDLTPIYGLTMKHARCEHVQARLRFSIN
Protocol: (§2) Test Example 3: CYP Inhibition Assay
(§3) An in vitro assay system was used to evaluate the effects of the compounds on the activities of several human liver microsomal cytochrome P450 (CYP) isozymes (CYP1A2, CYP2C9, CYP2D6, CYP3A4 (testosterone/midazolam), CYP2C19, and CYP2C8). Specific probe substrates for CYP450 isozymes were co-incubated with human liver microsomes and the compound at various concentrations (0, 0.0300, 0.100, 0.300, 1.00, 3.00, 10.0 µM). The reaction was initiated by adding the coenzyme NADPH. After the reaction was completed, the samples were processed, and the metabolites generated from the probe substrates were detected by liquid chromatography-tandem mass spectrometry (LC-MS/MS). Based on the resulting dose-response curves, the IC50 values of the test compounds for the probe substrate reactions catalyzed by each CYP isozyme were calculated.

CYP2C19 = biological target: T2, CYP2C19 (Homo sapiens, UniProt P33261); experiment: CYP inhibition assay in human liver microsomes; format: in vitro ADME
T2 construct: co-incubated with human liver microsomes; from tissue; host or cells: human liver microsomes
T2 sequence (P33261 whole entry): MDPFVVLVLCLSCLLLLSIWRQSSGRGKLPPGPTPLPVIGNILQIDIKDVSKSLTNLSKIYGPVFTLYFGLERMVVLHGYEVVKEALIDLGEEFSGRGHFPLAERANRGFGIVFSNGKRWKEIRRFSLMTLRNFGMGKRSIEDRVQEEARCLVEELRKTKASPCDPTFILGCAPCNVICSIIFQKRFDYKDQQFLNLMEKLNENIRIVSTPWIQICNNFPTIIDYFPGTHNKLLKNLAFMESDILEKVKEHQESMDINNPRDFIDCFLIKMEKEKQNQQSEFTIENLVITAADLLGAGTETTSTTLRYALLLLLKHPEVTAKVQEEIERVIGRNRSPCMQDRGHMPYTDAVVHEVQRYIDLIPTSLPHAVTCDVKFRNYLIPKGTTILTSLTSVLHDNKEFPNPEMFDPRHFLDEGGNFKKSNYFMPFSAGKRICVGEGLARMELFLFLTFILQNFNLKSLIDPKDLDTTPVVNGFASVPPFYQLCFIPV
Protocol: as §2, §3

CYP2C8 = biological target: T3, CYP2C8 (Homo sapiens, UniProt P10632); experiment: CYP inhibition assay in human liver microsomes; format: in vitro ADME
T3 construct: co-incubated with human liver microsomes; from tissue; host or cells: human liver microsomes
T3 sequence (P10632 1-490): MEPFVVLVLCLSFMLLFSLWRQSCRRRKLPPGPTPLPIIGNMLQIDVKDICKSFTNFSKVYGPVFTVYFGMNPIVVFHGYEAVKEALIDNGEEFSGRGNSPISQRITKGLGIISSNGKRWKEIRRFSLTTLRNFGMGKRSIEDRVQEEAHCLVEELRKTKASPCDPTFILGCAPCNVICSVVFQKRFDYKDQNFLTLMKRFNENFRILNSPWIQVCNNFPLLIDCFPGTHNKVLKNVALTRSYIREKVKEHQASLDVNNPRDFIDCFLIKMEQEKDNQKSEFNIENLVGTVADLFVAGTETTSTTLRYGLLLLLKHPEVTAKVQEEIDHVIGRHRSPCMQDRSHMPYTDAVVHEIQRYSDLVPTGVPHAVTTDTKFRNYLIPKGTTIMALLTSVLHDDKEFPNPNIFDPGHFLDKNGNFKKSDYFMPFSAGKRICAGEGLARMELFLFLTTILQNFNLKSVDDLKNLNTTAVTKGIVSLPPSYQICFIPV
Protocol: as §2, §3

CYP2C9 = biological target: T4, CYP2C9 (Homo sapiens, UniProt P11712); experiment: CYP inhibition assay in human liver microsomes; format: in vitro ADME
T4 construct: co-incubated with human liver microsomes; from tissue; host or cells: human liver microsomes
T4 sequence (P11712 whole entry): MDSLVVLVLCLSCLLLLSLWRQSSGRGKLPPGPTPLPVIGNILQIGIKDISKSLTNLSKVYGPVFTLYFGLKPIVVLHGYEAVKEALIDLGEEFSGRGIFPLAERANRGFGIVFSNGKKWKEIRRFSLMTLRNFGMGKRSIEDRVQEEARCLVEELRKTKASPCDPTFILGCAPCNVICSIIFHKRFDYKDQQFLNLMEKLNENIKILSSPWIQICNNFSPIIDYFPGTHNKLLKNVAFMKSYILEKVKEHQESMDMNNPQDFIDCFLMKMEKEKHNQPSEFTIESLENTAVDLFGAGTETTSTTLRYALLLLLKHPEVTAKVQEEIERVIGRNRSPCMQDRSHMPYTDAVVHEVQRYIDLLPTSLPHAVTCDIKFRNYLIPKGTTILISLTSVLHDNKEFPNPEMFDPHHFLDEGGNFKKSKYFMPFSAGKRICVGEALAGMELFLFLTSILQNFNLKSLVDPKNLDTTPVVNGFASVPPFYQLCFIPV
Protocol: as §2, §3

CYP2D6 = biological target: T5, CYP2D6 (Homo sapiens, UniProt P10635); experiment: CYP inhibition assay in human liver microsomes; format: in vitro ADME
T5 construct: co-incubated with human liver microsomes; from tissue; host or cells: human liver microsomes
T5 sequence (P10635 whole entry): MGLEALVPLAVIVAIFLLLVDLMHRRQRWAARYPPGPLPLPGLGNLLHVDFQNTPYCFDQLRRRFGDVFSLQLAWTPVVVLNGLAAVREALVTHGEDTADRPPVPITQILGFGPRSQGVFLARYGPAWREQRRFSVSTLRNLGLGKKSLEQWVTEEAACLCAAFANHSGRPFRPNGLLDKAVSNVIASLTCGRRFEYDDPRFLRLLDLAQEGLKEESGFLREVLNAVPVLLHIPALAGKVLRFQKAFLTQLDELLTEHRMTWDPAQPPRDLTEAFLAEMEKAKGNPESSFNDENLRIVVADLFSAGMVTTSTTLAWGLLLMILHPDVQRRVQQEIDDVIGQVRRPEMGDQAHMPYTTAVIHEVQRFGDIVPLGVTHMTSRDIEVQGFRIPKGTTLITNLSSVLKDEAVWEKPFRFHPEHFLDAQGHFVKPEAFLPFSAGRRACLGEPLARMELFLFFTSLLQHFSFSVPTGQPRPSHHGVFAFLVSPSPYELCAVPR
Protocol: as §2, §3

[2] = biological target: T6, CYP3A4 (testosterone/midazolam) (Homo sapiens, UniProt P08684); experiment: CYP inhibition assay in human liver microsomes; format: in vitro ADME
T6 construct: co-incubated with human liver microsomes; from tissue; host or cells: human liver microsomes
T6 sequence (P08684 whole entry): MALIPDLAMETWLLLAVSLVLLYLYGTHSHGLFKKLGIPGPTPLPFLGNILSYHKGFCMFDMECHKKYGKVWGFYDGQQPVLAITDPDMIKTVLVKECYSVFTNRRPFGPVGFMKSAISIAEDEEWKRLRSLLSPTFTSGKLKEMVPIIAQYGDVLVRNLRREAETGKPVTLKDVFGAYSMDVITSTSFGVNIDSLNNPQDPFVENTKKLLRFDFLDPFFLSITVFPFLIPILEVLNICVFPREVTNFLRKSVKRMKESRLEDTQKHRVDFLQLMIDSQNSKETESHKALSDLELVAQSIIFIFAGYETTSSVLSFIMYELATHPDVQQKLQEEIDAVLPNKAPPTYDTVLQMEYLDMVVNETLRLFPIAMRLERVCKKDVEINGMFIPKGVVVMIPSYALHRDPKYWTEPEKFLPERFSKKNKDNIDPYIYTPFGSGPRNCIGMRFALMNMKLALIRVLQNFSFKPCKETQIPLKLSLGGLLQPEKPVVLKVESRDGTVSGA
Protocol: as §2, §3

22RV1 cells = experiment: Cell proliferation inhibition assay in 22RV1 cells (CellTiter-Glo, 7 days); format: cell-based, human; conditions: Homo sapiens, 22Rv1, 168 h
Summary of the method: as §1

[3] = human liver microsomes, NADPH, read-out: CYPs 1A2 (IC50)
[4] = human liver microsomes, NADPH, read-out: CYPs 2C19 (IC50)
[5] = human liver microsomes, NADPH, read-out: CYPs 2C8 (IC50)
[6] = human liver microsomes, NADPH, read-out: CYPs 2C9 (IC50)
[7] = human liver microsomes, NADPH, read-out: CYPs 2D6 (IC50)
[8] = probe substrate midazolam, read-out: CYPs 3A4 (Midazolam) (IC50)
[9] = probe substrate testosterone, read-out: CYPs 3A4 (Testosterone) (IC50)

Compound	IC50 (LNCaP cells) [µM]	AUC(0-inf) ([1]; po, 30 mg/kg, PO-30mpk) [µg·h/mL]	Cmax ([1]; po, 30 mg/kg, PO-30mpk) [ng/mL]	half-life ([1]; po, 30 mg/kg, PO-30mpk) [h]	Tmax ([1]; po, 30 mg/kg, PO-30mpk) [h]	IC50 (CYP2C19; [4]) [µM]	IC50 (CYP2C8; [5]) [µM]	IC50 (CYP2C9; [6]) [µM]	IC50 [2, 8] [µM]	IC50 [2, 9] [µM]	IC50 (22RV1 cells) [µM]	C0 ([1]; 0.5 mg/kg, IV-0.5mpk) [ng/mL]	clearance ([1]; 0.5 mg/kg, IV-0.5mpk) [mL/min/kg]	bioavailability ([1]; 30 mg/kg) [%]	AUC(0-inf) ([1]; iv, 0.5 mg/kg, IV-0.5mpk) [µg·h/mL]	half-life ([1]; iv, 0.5 mg/kg, IV-0.5mpk) [h]	further results
CC(C)(c1ccc(-c2cnc(OCc3ccnc(N4CC([S@](C)(=N)=O)C4)n3)cn2)cc1)c1cc(Cl)c(OCCCl)c(C#N)c1 (single isomer, unassigned) [Compound 323A]	0.58	1390	131000	5.94	3.3	> 10	> 10	8	> 10	> 10	–	–	–	–	–	–	IC50 (CYP1A2; [3]): > 10 µM; IC50 (CYP2D6; [7]): > 10 µM
CC(C)(c1ccc(-c2ccc(OCc3ccnc(P(C)(C)=O)n3)cc2)cc1)c1cc(Cl)c(OCCCl)c(C#N)c1 [Compound 2]	–	619	31700	12	3.3	> 10	–	6.9	> 10	> 10	0.77	1200	1.09	135	7.65	8.9	IC50 (CYP1A2; [3]): > 10 µM; IC50 (CYP2D6; [7]): > 10 µM
CC(C)(c1ccc(-c2ccc3oc(-c4ccnc(P(C)(C)=O)n4)c(N)c3c2)cc1)c1cc(Cl)c(OCCCl)c(C#N)c1 [Compound 56]	–	277	29600	8.57	3.33	–	–	–	–	–	0.27	6190	1.02	55.6	8.3	6.1	IC50 (CYP1A2): > 10 µM; IC50 (CYP2C19): > 10 µM; IC50 (CYP2C8): > 10 µM; IC50 (CYP2C9): > 10 µM; IC50 (CYP2D6): > 10 µM; IC50 ([2]; CYPs 3A4 (Midazolam) (IC50), probe substrate midazolam): > 10 µM; IC50 ([2]; CYPs 3A4 (Testosterone) (IC50), probe substrate testosterone): > 10 µM
CC(C)(c1ccc(-c2ccc(OCc3ccnc(N4CC(S(C)(=O)=O)C4)n3)cn2)cc1)c1cc(Cl)c(OCCCl)c(C#N)c1 [Compound 85]	0.33	480	43000	8.9	2	> 10	> 10	6.5	> 10	> 10	0.34	3110	0.63	58.3	13.7	6.12	–
CC(C)(c1ccc(-c2ccc(C#Cc3cnc(P(C)(C)=O)nc3)cc2)cc1)c1cc(Cl)c(OCCCl)c(C#N)c1 [Compound 109]	0.57	870	29200	27.1	4	> 10	8.8	> 10	> 10	> 10	0.12	1580	0.56	93.6	15.5	13.8	–
CC(C)(c1ccc(-c2ccc(OCc3ccc(-c4cnc(P(C)(C)=O)nc4)cc3)cc2)cc1)c1cc(Cl)c(OCCCl)c(C#N)c1 [Compound 136]	0.52	242	10100	16.6	7	> 10	> 10	> 10	> 10	> 10	0.23	3730	0.49	23.5	17.1	14.6	–
CC(C)(c1ccc(-c2ccc(OCc3ccc(-c4cnc(P(C)(C)=O)nc4)nc3)cc2)cc1)c1cc(Cl)c(OCCCl)c(C#N)c1 [Compound 276]	0.51	216	13200	9	4	> 10	> 10	> 10	> 10	> 10	0.11	–	–	–	–	–	–
CC(C)(c1ccc(-c2ccc(OCC34CC(c5cnc(P(C)(C)=O)nc5)(C3)C4)cc2)cc1)c1cc(Cl)c(OCCCl)c(C#N)c1 [Compound 320]	0.26	–	–	–	–	> 10	9.1	> 10	> 10	> 10	0.079	–	–	–	–	–	–
CC(C)(c1ccc(-c2cnc(OCc3ccnc(N4CC5(CCS5(=O)=O)C4)n3)cn2)cc1)c1cc(Cl)c(OCCCl)c(C#N)c1 [Compound 376]	0.1	2300	131000	23	4	> 10	> 10	> 10	> 10	> 10	0.27	–	–	–	–	–	–
CC(C)(c1ccc(-c2ncc(OCc3ccnc(N4CC(S(C)(=O)=O)C4)n3)cn2)cc1)c1cc(Cl)c(OCCCl)c(C#N)c1 [Compound 379]	0.12	–	–	–	–	> 10	> 10	> 10	> 10	> 10	0.68	–	–	–	–	–	–
CC(C)(c1ccc(-c2cnc(OCc3ccc(-c4ccc(P(C)(C)=O)nn4)cc3)cn2)cc1)c1cc(Cl)c(OCCCl)c(C#N)c1 [Compound 380]	0.15	–	–	–	–	> 10	> 10	> 10	> 10	> 10	0.23	–	–	–	–	–	–
CC(C)(c1ccc(-c2cnc(OCc3ccc(-c4cnc(P(C)(C)=O)cn4)cc3)cn2)cc1)c1cc(Cl)c(OCCCl)c(C#N)c1 [Compound 381]	0.11	–	–	–	–	> 10	> 10	5.8	> 10	> 10	0.35	–	–	–	–	–	–
CC(C)(c1ccc(-c2cnc(OCc3ccnc(N4CC(S(=O)(=O)C5CC5)C4)n3)cn2)cc1)c1cc(Cl)c(OCCCl)c(C#N)c1 [Compound 387]	0.05	–	–	–	–	> 10	> 10	1.9	> 10	> 10	0.22	–	–	–	–	–	–
CC(C)(c1ccc(-c2cnc(OCc3ccnc(N4CC5(C4)CS(=N)(=O)C5)n3)cn2)cc1)c1cc(Cl)c(OCCCl)c(C#N)c1 [Compound 391]	0.091	–	–	–	–	> 10	> 10	10	> 10	> 10	0.46	–	–	–	–	–	–
